Experimental findings from US5945400A, “Nucleic acid-containing composition, preparation and use thereof” (Rhone-Poulenc Rorer SA, priority 1995, dated 1999) are described below.

Data set [1] concerns tumours of type 3LL (Lewis Lung carcinoma). In words: In vivo transfer into tumour cells (3LL tumours), luciferase activity. The settings on record: no peptide. Set-up: species or system mice. Here is the method:
The corresponding tests are carried out on adult (>8 weeks) female C57/BL mice carrying tumours of type 3LL (Lewis Lung carcinoma) obtained by passing fragments of tumour from animal to animal, implanted under the skin of the flank.
As regards the solutions injected, they are prepared as follows: the DNA is first dissolved in the buffer, the peptide is then optionally added and, after 20 minutes, a solution of cationic lipids at high concentration (20 or 40 mM) is added to the mixture. After addition of all these products, the mixture contains, besides the DNA, the peptide and the cationic lipid, 150 mM NaCl, 5% D-glucose and 5 mM MES pH 6.2. In the case of the last two series with lipopolyamine C (RPR 120 535), the injection vehicle is 75 mM NaCl and 150 mM NaCl, 5% D-glucose respectively. The injection is made 20 to 30 minutes after the solution has been prepared.
Each transfecting composition (see Tables 9 and 10 for their respective specificities) is injected into the tumour 7 days after implantation, the mouse being anaesthetized with a ketamine 130 mg/kg+xylazine (4 mg/kg) mixture.
Two days after the injection, the tumour tissue is removed, weighed and then chopped up and ground in 500 μl of lysis buffer (Promega cell lysis buffer E153 A). After centrifugation (20,000 g for 10 minutes), 10 μl are taken and used to evaluate the luciferase activity by measuring the total light emission obtained after mixing with 50 μl of reagent (Promega luciferase assay substrate) in a Lumat LB 9501 luminometer (Berthold), with integration over 10 seconds.
The resulting activity is expressed as RLUs (relative light units) estimated in the entire tumour lysis supernatant, or as RLU per μg of DNA injected.

For another data set, the system named is 3LL cells. In words: In vitro transfer of nucleic acid into 3LL cells, luciferase activity. The settings on record: 0.5 μg DNA, 0.5 μg peptide, 75 mM NaCl. It counts as cell-based. How it is done: A mixture of 10 μl composed of the following is prepared: 0.5 μg of pCMV-luc plasmid DNA, 0.5 μg of PR1 or PR2 a compound according to the invention, in a solution of 75 mM NaCl final lipopolyamine C (RPR 120535) in charge ratios as indicated in each of the tests listed in Table 11 below. 1×10^5 3LL cells (in 250 μl of DMEM culture medium with 10% foetal calf serum) are incubated with the above mixture at 37° C. under a 5% CO2 atmosphere for 4 hours. 500 μl of culture medium are added and the cells are recultured. The following day, the cells are washed and recultured for 24 hours in the same medium containing 10% foetal calf serum. The cell carpet is then lysed in 100 μl of lysis buffer (Promega). The luciferase activity is measured by adding 50 μl of substrate (Promega). The reading is taken on an LB luminometer by cumulating the RLUs (relative light nits) over 10 seconds.

In another data set the test system is NIH3T3 cells. In words: Variation of compound/DNA ratio in the presence of lipopolyamine A, luciferase activity. Format: cell-based. The settings on record: Compound/DNA ratio 0. Here is the method: 1. A mixture of 10 μl composed of the following is prepared:
0.55 μg of pCNV-luc plasma DNA and a compound according to the invention, in the ratio indicated, in 150 mM NaCl buffer solution,
1,3-bis (3-aminopropylamino) -2-propyl (dioctadecyl-carbamoylmethoxy)acetate in the charge ratios indicated.
2. 5·10^4 cells from NIH3T3 lines are incubated with the above mixture at 37° C., under an atmosphere of 5% CO2 for 4 hours. The cells are then washed and recultured for 48 hours in a medium containing 10% serum (DMEM 10% SVF). The cell carpet is then lysed, 45 hours after the transfection, in 100 μl of lysis buffer (Promega), recovered and then centrifuged at 20,000 g for 5 minutes. The luciferase activity is measured on 10 μl of the supernatant, adding 50 μl of substrate (Promega). The reading is taken on a Berthold lumat 9501® luminometer, cumulating the RLUs (relative light units) over 10 seconds.

The nature of another data set: physchem. It counts as physicochemical. How it is done: This oligopeptide was synthesized in the form of the trifluoroacetic acid salt using an Applied Biosystem 431A peptide synthesizer, on an HMP resin (Applied Biosystem) and according to an FMOC strategy. After the synthesis, the peptide was released from the resin by treatment for 90 minutes in the presence of 1/19 water/TFA solution. After filtration, the solution is concentrated on a rotary evaporator and the peptide is then precipitated twice, by addition of tert-butyl methyl ether, from a solution in TFA. The final pellet is washed with tert-butyl methyl ether and then dried. The peptide is dissolved in 5 ml of water, filtered and purified by reverse-phase HPLC on a C18 100 A column (Biorad RSL). The peptide is purified by with the aid of a gradient of 0 to 25% of acetonitrile, 0.07% TFA in water 0.07% TFA. The purity of the peptide obtained is greater than 95% and its solubility in water is 100 mg/ml.
This oligopeptide was synthesized in the form of the trifluoroacetic acid salt according to the procedure described above, using 2/40/3/1/2 (v/v) water/TFA/phenol/ethanedithiol/thioanisole solution for the cleavage. The purity of the peptide obtained is greater than 95% and its solubility in water is 100 mg/ml at pH 2.1.
These oligopeptides are synthesized in the form of the trifluoroacetic acid salts according to the procedure described above. To do this, the resin is divided into two batches. A first batch intended for the synthesis of H is treated for the cleavage with 40/3/1/2/2 (v/v) TFA/phenol/ethanedithiol/thioanisole/water solution. The purity of the peptide obtained is greater than 90% and its solubility in water is 10 mg/ml at pH 2.1. The synthesis is continued on the second batch of resin so as to obtain nls-βAla-H. The cleavage solution used is identical to the previous one. The purity of the peptide obtained is greater than 95% and its solubility in water is 10 mg/ml at pH 2.1.

Converted amounts (≈) assume the structure as drawn. No end group written: not given here.

Take `CCCCCCCCCCCCCCCCCCN(CCCCCCCCCCCCCCCCCC)C(=O)CNC(=O)CNCCCNCCCCNCCCN` [Lipopolyamine C, H2 N(CH2)3 NH(CH2)4 NH(CH2)3 NHCH2 COGlyN[(CH2)18]2]: the “Result, RLU/tumour average” value in data set [1] (18.75 μg DNA/tumour, 0.25 μg/μl, cationic lipid C 2 nmol/μg DNA, vehicle 75 mM NaCl) is given as 222 700 RLU/tumour; in data set [1] (20 μg DNA/tumour, 0.5 μg/μl, cationic lipid C 4 nmol/μg DNA, vehicle 150 mM NaCl, 5% D-glucose), 806 467 RLU/tumour. In addition, the luciferase activity in the data set with 3LL cells (Table 11, Lipopolyamine C/DNA charge ratio 4x) is given as 107 289 RLU; with 3LL cells (Table 11, Lipopolyamine C/DNA charge ratio 6x) it was 77 396 RLU; in the data set with 3LL cells (Table 11, Lipopolyamine C/DNA charge ratio 8x) it was 14 512 RLU; in the data set on 3LL cells (Table 12, Lipopolyamine C/DNA charge ratio 4x) it was 12 037 RLU; in the data set on 3LL cells (Table 12, Lipopolyamine C/DNA charge ratio 6x), 901 RLU; with 3LL cells (Table 12, Lipopolyamine C/DNA charge ratio 8x), 328 RLU.

For `CCCCCCCCCCCCCCCCCCN(CCCCCCCCCCCCCCCCCC)C(=O)COCC(=O)OC(CNCCCN)CNCCCN` [lipopolyamine A, d,1-3-bis(3-aminopropylamino)-2-propyl (dioctadecyl-carbamoylmethoxy)acetate], the luciferase activity in the data set on NIH3T3 cells (lipopolyamine A 3x) was 8.9 10^6 RLU; in the data set with NIH3T3 cells (lipopolyamine A 6x), 6.2 10^6 RLU; with NIH3T3 cells (lipopolyamine A NH2/DNA phosphates 1.8x) it was 3.9 10^6 RLU. Moreover, the “Result, RLU/tumour average” value in data set [1] (7.5 μg DNA/tumour, 0.5 μg/μl, cationic lipid A 3 nmol/μg DNA) is listed as 88 712 RLU/tumour; in data set [1] (20 μg DNA/tumour, 2 μg/μl, cationic lipid A 1.8 nmol/μg DNA), 142 300 RLU/tumour; in data set [1] (30 μg DNA/tumour, 2 μg/μl, cationic lipid A 3 nmol/μg DNA), 99 775 RLU/tumour.

By solubility is commonly meant the concentration that dissolves in the medium under given conditions. Read a low solubility as little dissolved substance. On to `CC(C)[C@H](NC(=O)[C@H](CCCCN)NC(=O)[C@H](CCCNC(=N)N)NC(=O)[C@H](CCCCN)NC(=O)[C@H](CCCCN)NC(=O)[C@H](CCCCN)NC(=O)[C@@H]1CCCN1)C(=O)O` [nls, ProLysLysLysArgLysVal], for which, in the data set “physchem” (pH 2.1, water), the concentration in solution (solubility) was 100 mg/mL (≈ 113 mM).

As for `CC(C)[C@H](NC(=O)[C@H](CCCCN)NC(=O)[C@H](CCCNC(=N)N)NC(=O)[C@H](CCCCN)NC(=O)[C@H](CCCCN)NC(=O)[C@H](CCCCN)NC(=O)[C@@H]1CCCN1)C(=O)NCCC(=O)N[C@@H](CCCCN)C(=O)N[C@H](C(=O)N1CCC[C@H]1C(=O)N[C@@H](CCCCN)C(=O)N[C@@H](CCCCN)C(=O)N[C@@H](C)C(=O)N[C@@H](CCCCN)C(=O)N[C@@H](CCCCN)C(=O)N1CCC[C@H]1C(=O)N[C@@H](CCCCN)C(=O)N[C@H](C(=O)N1CCC[C@H]1C(=O)N[C@@H](CCCCN)C(=O)N[C@@H](CCCCN)C(=O)N[C@@H](C)C(=O)N[C@@H](CCCCN)C(=O)N[C@@H](CCCCN)C(=O)N1CCC[C@H]1C(=O)O)[C@@H](C)O)[C@@H](C)O` [nls-H, ProLysLysLysArgLysVal-βAlaLysThrProLysLysAlaLysLysProLysThrProLysLysAlaLysLysPro (COOH) (SEQ ID No.9)], in the data set “physchem” (pH 2.1, water), the concentration in solution (solubility) was 10 mg/mL (≈ 3.37 mM).

As for “ATPAKKAAATPAKKAA [N, AlaThrProAlaLysLysAlaAlaAlaThrProAlaLysLysAlaAla (COOH) (SEQ ID No.:3)]”, the solubility in the data set “physchem” (water) is 100 mg/mL.

“KTPKKAKKPKTPKKAKKP [H, LysThrProLysLysAlaLysLysProLysThrProLysLysAlaLysLysPro (COOH) (SEQ ID No.:4)]” registered a solubility in the data set “physchem” (pH 2.1, water) of 10 mg/mL.
